Reference: patent publication US8278320B2, “Azabicyclo[2.2.1]heptane compounds as alpha-7 nicotinic acetylcholine receptor ligands” (Bristol-Myers Squibb Company, priority 2009, dated 2012)
Where two headings read alike, the source gives them in different places.

Molecular target: α-7 nicotinic ACh receptor ion channel expressed in mammalian HEK 293 cells (Rattus norvegicus, UniProt Q05941)
Experiment: Ca2+-sensitive, fluorescence-based FLIPR assay for α-7 nicotinic acetylcholine receptor channel function (agonist activity)
Assay type: cell-based
Design: expressed in transfected cells
Settings: Ca2+ flux, HEK-293 cells, Fluo-4
Description: I) α7 Nicotinic Acetycholine Receptor Binding. Membranes were prepared for binding using HEK293 cells stably expressing the rat α7 nicotinic acetycholine receptor (rat α7 nAChR). Cells were homogenized at 4° C. in hypotonic lysis buffer consisting of 10 mM Tris (pH 7.4), 5 mM EDTA and protease inhibitors and centrifuged at 32000×g for 20 minutes. The pellet was washed once in membrane wash buffer consisting of 50 mM Tris (pH 7.4), 1 mM EDTA and protease inhibitors and centrifuged at 32000×g for 20 minutes. This pellet was then resuspended in assay buffer consisting 50 mM KH2PO4 (pH 7.4 at 25° C.), 1 mM EDTA, 0.005% Triton-X 100 and 0.1% (v/v) Sigma Protease Inhibitor Cocktail. Aliquots were then frozen in dry ice/ethanol and kept at −80° C. until the day of the assay. II) A Ca^2+-Sensitive, Fluorescence-Based Assay α-7 for Nicotinic Acetylcholine Receptor Channel Function In Mammalian Cells (“FLIPR”). Summary: Lead compounds are evaluated for agonist activity at α-7, α3β4, α4αβ2, and α1β1δ1ε sub-types of nicotinic ACh receptor ion channels expressed in mammalian HEK 293 cells. Agonist potency and efficacy values are determined from kinetic fluorescence Ca^2+ influx measurements made using a 384 well FLIPR (Fluorescence Image Plate Reader). […] In this assay, channel expressing HEK cell lines seeded in 384 well assay plates are loaded with a membrane permeant fluorescent Ca^2+ indicator dye, whose 510 nm green emission signal increases in response to elevation of intracellular Ca^2+ concentration. The basal fluorescence from the cells is monitored in real time, followed by the acute addition of test compounds.
Materials and Methods: Reagents: The acetomethoxy (AM) ester of the Ca^2+ indicator dye Fluo-4 was obtained from InVitrogen, (Carlsbad, Calif.). Acetylcholine and all buffer constituents were purchased from Sigma Chemical Company, St. Louis, Mo. G418 and Minimal Essential Medium were purchased from InVitrogen Life Technologies, Carlsbad, Calif. Fetal bovine serum was purchased from (InVitrogen, Carlsbad, Calif.).
Cell Culture: HEK-293 cells were grown in Minimal Essential Medium containing 10% (v/v) fetal bovine serum at 37° C. in a 5% CO2 incubator. HEK-293 cells stably expressing the ion channels were grown in the same medium with the addition of 500 μg/ml G418.
Ca^2+ flux assays of Ca^2+ channels expressed in HEK-293 cells: HEK-293 cells expressing the ion channels of interest were plated in 384 well, black-walled, clear-bottomed, poly-D-lysine coated plates at a density of ˜20,000 cells/well in 20 μl of Minimal Essential Medium containing 10% (v/v) fetal bovine serum and incubated for 2 days at 29° C. in a 5% CO2 incubator. Prior to assay, cells were loaded with the Fluo-4 AM ester. […] Dye loading was allowed to proceed for 90 minutes at room temperature at which time the dye loading solution was removed and replaced with 40 μl/well of Hanks buffer. Cells loaded with dye were loaded onto a FLIPR384 (Molecular Devices, Sunnyvale, Calif.). Fluo-4 dye was excited using the 488 nm line of an argon laser. Emission was filtered using a 540+/−30 nm bandpass filter. For evaluation of the effects of test compounds using the Ca^2+ flux assay, compounds to be tested were provided in assay ready plates. For nicotinic receptor ion channel expressing cells, the assay was initiated by the addition of 20 μl/well of Hanks buffer containing test compounds. For all assays, data were collected at 1 Hz for 10 seconds (baseline), at which time the compound containing stimulus buffers are added, and further measurements collected at 0.33 Hz for 3 min.
Data Analysis: The statistical robustness of the nicotinic receptor Ca^2+ flux assays is determined from blanks and totals wells. […] The raw fluorescence units data files generated on the FLIPR plate reader are automatically exported and processed by in-house data analysis tools.

[1] = agonist potency class, read-out: FLIPR α7 activity rating (EC50)
[2] = agonist potency, read-out: FLIPR α7-HI (EC50)
[3] = FLIPR α7-HI (EC50, nM), agonist potency
[4] = FLIPR α7 activity rating (EC50, nM), agonist potency class

α-7 nicotinic ACh receptor ion channel expressed in mammalian HEK 293 cells, sequence (Q05941 23-502): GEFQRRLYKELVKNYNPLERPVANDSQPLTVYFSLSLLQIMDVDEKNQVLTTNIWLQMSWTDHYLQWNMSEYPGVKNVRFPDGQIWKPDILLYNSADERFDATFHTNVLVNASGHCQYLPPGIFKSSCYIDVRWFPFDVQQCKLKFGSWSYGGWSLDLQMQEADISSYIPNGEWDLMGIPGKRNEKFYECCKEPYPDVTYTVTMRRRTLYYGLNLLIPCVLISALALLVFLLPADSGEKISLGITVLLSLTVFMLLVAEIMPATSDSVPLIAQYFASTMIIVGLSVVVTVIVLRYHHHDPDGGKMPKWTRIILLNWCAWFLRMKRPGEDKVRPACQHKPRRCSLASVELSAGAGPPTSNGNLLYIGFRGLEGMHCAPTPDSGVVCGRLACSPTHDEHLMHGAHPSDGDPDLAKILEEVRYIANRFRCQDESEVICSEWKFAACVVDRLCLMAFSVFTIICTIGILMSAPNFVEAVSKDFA

Row | Compound | EC50 [3] | EC50 [4] | further results
1 | COc1ccc2nc(NC3=NC[C@@]4(C[N@]5CC[C@H]4C5)O3)sc2c1 (relative stereo) [Example 1, (3R*,4S*)—N-(6-Methoxybenzo[d]thiazol-2-yl)-4′H-1-azaspiro[bicyclo[2.2.1]heptane-3,5′-oxazol]-2′-amine] |  |  | EC50 [1]: 1000 to 100000 nM; EC50 [2]: 411 nM
2 | COc1ccc2nc(NC3=NC[C@@]4(C[N@@]5CC[C@@H]4C5)O3)sc2c1 (relative stereo) [Example 2, (3R*,4R*)—N-(6-Methoxybenzo[d]thiazol-2-yl)-4′H-1-azaspiro[bicyclo[2.2.1]heptane-3,5′-oxazol]-2′-amine] |  |  | EC50 [1]: 1000 to 100000 nM
3 | Clc1ccc2nc(NC3=NC[C@@]4(C[N@@]5CC[C@@H]4C5)O3)sc2n1 (relative stereo) [Example 3, (3R*,4R*)—N-(5-Chlorothiazolo[5,4-b]pyridin-2-yl)-4′H-1-azaspiro[bicyclo[2.2.1]heptane-3,5′-oxazol]-2′-amine] | 91 nM | 100 to 1000 nM | 
4 | Fc1ccc2nc(NC3=NC[C@@]4(C[N@@]5CC[C@@H]4C5)O3)sc2n1 (relative stereo) [Example 4, (3R*,4R*)—N-(5-Fluorothiazolo[5,4-b]pyridin-2-yl)-4′H-1-azaspiro[bicyclo[2.2.1]heptane-3,5′-oxazol]-2′-amine] |  | 100 to 1000 nM | 
5 | COc1ccc2nc(NC3=NC[C@@]4(C[N@@]5CC[C@@H]4C5)O3)sc2n1 (relative stereo) [Example 5, (3R*,4R*)—N-(5-Methoxythiazolo[5,4-b]pyridin-2-yl)-4′H-1-azaspiro[bicyclo[2.2.1]heptane-3,5′-oxazol]-2′-amine] | 311 nM | 1000 to 100000 nM | 
6 | Clc1cnc(NC2=NC[C@@]3(C[N@@]4CC[C@@H]3C4)O2)c(Cl)c1 (relative stereo) [Example 6, (3R*,4R*)—N-(3,5-Dichloropyridin-2-yl)-4′H-1-azaspiro[bicyclo[2.2.1]heptane-3,5′-oxazol]-2′-amine] | 155 nM | 100 to 1000 nM | 
7 | c1ccc2cc(NC3=NC[C@@]4(C[N@@]5CC[C@@H]4C5)O3)ncc2c1 (relative stereo) [Example 7, (3R*,4R*)—N-(Isoquinolin-3-yl)-4′H-1-azaspiro[bicyclo[2.2.1]heptane-3,5′-oxazol]-2′-amine] |  | < 100 nM | 
8 | c1cnc2sc(NC3=NC[C@@]4(C[N@@]5CC[C@@H]4C5)O3)nc2c1 (relative stereo) [Example 8, (3R*,4R*)—N-(Thiazolo[5,4-b]pyridin-2-yl)-4′H-1-azaspiro[bicyclo[2.2.1]heptane-3,5′-oxazol]-2′-amine] |  | 100 to 1000 nM | 
9 | Cc1cccc(-c2cnc(NC3=NC[C@@]4(C[N@@]5CC[C@@H]4C5)O3)nc2)c1 (relative stereo) [Example 9, (3R*,4R*)—N-(5-m-Tolylpyrimidin-2-yl)-4′H-1-azaspiro[bicyclo[2.2.1]heptane-3,5′-oxazol]-2′-amine] |  |  | EC50 [1]: 1000 to 100000 nM; EC50 [2]: 487 nM
10 | COc1ccc(NC2=NC[C@@]3(C[N@@]4CC[C@@H]3C4)O2)nc1 (relative stereo) [Example 10, (3R*,4R*)—N-(5-Methoxypyridin-2-yl)-4′H-1-azaspiro[bicyclo[2.2.1]heptane-3,5′-oxazol]-2′-amine] |  | 100 to 1000 nM | 
11 | c1ccc2cc(NC3=NC[C@@]4(C[N@]5CC[C@H]4C5)O3)ncc2c1 (relative stereo) [Example 16, (3R*,4S*)—N-(Isoquinolin-3-yl)-4′H-1-azaspiro[bicyclo[2.2.1]heptane-3,5′-oxazol]-2′-amine] | 33 nM | < 100 nM | 
12 | c1cnc2sc(NC3=NC[C@@]4(C[N@]5CC[C@H]4C5)O3)nc2c1 (relative stereo) [Example 17, (3R*,4S*)—N-(Thiazolo[5,4-b]pyridin-2-yl)-4′H-1-azaspiro[bicyclo[2.2.1]heptane-3,5′-oxazol]-2′-amine] |  | < 100 nM | 
13 | c1ccc2cc(NC3=NCC4(CN5CCC4C5)O3)ncc2c1 (single isomer, unassigned) [Example 7a] |  | < 100 nM | 
14 | c1ccc2cc(NC3=NCC4(CN5CCC4C5)O3)ncc2c1 (single isomer, unassigned) [Example 7b] |  | < 100 nM | 
15 | c1cnc2sc(NC3=NCC4(CN5CCC4C5)O3)nc2c1 (single isomer, unassigned) [Example 8a] | 121 nM | 100 to 1000 nM | 
16 | c1cnc2sc(NC3=NCC4(CN5CCC4C5)O3)nc2c1 (single isomer, unassigned) [Example 8b] |  | < 100 nM | 
17 | c1ccc2cc(NC3=NCC4(CN5CCC4C5)O3)ncc2c1 (single isomer, unassigned) [Example 16a] |  | 1000 to 100000 nM | 
18 | c1ccc2cc(NC3=NCC4(CN5CCC4C5)O3)ncc2c1 (single isomer, unassigned) [Example 16b] |  | < 100 nM | 
19 | c1cnc2sc(NC3=NCC4(CN5CCC4C5)O3)nc2c1 (single isomer, unassigned) [Example 17a] |  | 1000 to 100000 nM | 
20 | c1cnc2sc(NC3=NCC4(CN5CCC4C5)O3)nc2c1 (single isomer, unassigned) [Example 17b] | 35 nM | < 100 nM | 
21 | c1cncc(-c2cc(NC3=NC[C@@]4(C[N@@]5CC[C@@H]4C5)O3)ncn2)c1 [Example 11, (3R,4R)—N-(6-(Pyridin-3-yl)pyrimidin-4-yl)-4′H-1-azaspiro[bicyclo[2.2.1]heptane-3,5′-oxazol]-2′-amine] | 34 nM | < 100 nM | 
22 | COc1cc(NC2=NC[C@@]3(C[N@@]4CC[C@@H]3C4)O2)ncn1 [Example 13, (3R,4R)—N-(6-Methoxypyrimidin-4-yl)-4′H-1-azaspiro[bicyclo[2.2.1]heptane-3,5′-oxazol]-2′-amine] |  | 100 to 1000 nM | 
23 | Clc1cnc(NC2=NC[C@@]3(C[N@@]4CC[C@@H]3C4)O2)cn1 [Example 14, (3R,4R)—N-(5-Chloropyrazin-2-yl)-4′H-1-azaspiro[bicyclo[2.2.1]heptane-3,5′-oxazol]-2′-amine] |  | 100 to 1000 nM | 
24 | c1ccc(-c2ccnc(NC3=NC[C@@]4(C[N@@]5CC[C@@H]4C5)O3)n2)cc1 [Example 15, (3R,4R)—N-(4-Phenylpyrimidin-2-yl)-4′H-1-azaspiro[bicyclo[2.2.1]heptane-3,5′-oxazol]-2′-amine] |  | < 100 nM | 
25 | c1cc(-c2cc(NC3=NC[C@@]4(C[N@@]5CC[C@@H]4C5)O3)ncn2)ccn1 [Example 18, (3R,4R)—N-(6-(Pyridin-4-yl)pyrimidin-4-yl)-4′H-1-azaspiro[bicyclo[2.2.1]heptane-3,5′-oxazol]-2′-amine] |  | < 100 nM | 
26 | c1cn(-c2cc(NC3=NC[C@@]4(C[N@@]5CC[C@@H]4C5)O3)ncn2)cn1 [Example 19, (3R,4R)—N-(6(1H-Imidazol-1-yl)pyrimidin-4-yl)-4′H-1-azaspiro[bicyclo[2.2.1]heptane-3,5′-oxazol]-2′-amine] | 45 nM | < 100 nM | 
27 | Clc1cn(-c2cc(NC3=NC[C@@]4(C[N@@]5CC[C@@H]4C5)O3)ncn2)cn1 [Example 20, (3R,4R)—N-(6-(4-Chloro-1H-imidazol-1-yl)pyrimidin-4-yl)-4′H-1-azaspiro[bicyclo[2.2.1]heptane-3,5′-oxazol]-2′-amine] | 129 nM | 100 to 1000 nM | 
28 | c1nc(NC2=NC[C@@]3(C[N@@]4CC[C@@H]3C4)O2)cc(-n2cncn2)n1 [Example 21, (3R,4R)—N-(6-(1H-1,2,4-Triazol-1-yl)pyrimidin-4-yl)-4′H-1-azaspiro[bicyclo[2.2.1]heptane-3,5′-oxazol]-2′-amine] |  | < 100 nM | 
